# According to publication PMC9372421 (Clinical and Translational Science, 2022):
# Values joined by “and” are separate entries in the source; they are usually repeats but may differ in a detail not shown here. Identical values can stand only once. Like-named read-outs stand apart in the source and are kept apart here.
# Legend:
# [1] = molecular target: T1, human NaV1.5 sodium channel (Homo sapiens, UniProt Q14524)
# [2] = molecular target: T1, human NaV1.5 sodium channel; format: cell-based
# [3] = molecular target: T1, human NaV1.5 sodium channel; remark: listed apart in the source
# [4] = molecular target: T1, human NaV1.5 sodium channel; experiment: cell-based; conditions: IC50 block of late NaV1.5 current, mean ± SEM
# [5] = lamotrigine 15 μg/ml; cited from earlier work
# [6] = molecular target: T1, human NaV1.5 sodium channel; remark: listed apart in the source
# [7] = molecular target: T1, human NaV1.5 sodium channel; experiment: cell-based; conditions: IC50 block of peak NaV1.5 current, HEK293, mean ± SEM
# [8] = lamotrigine containing regimens vs. no ASMs, cited from earlier work
# [9] = healthy subjects; cited from earlier work
# [10] = test system: hERG potassium channel; conditions: cited from earlier work
# [11] = test system: canine purkinje fibers; conditions: 30 μM; historical nonclinical assessment, data not reported; cited from earlier work
# [12] = human, in vivo
# [13] = human, in vivo; remark: listed apart in the source
# [14] = cited from earlier work
# [15] = each drug at or near its IC50, lamotrigine 280 μM, mean ± SEM
# [16] = each drug at or near its IC50, V hold = −120 mV
# [17] = each drug at or near its IC50, lamotrigine 280 µM, V hold = −120 mV
# T1 sequence (Q14524 whole entry): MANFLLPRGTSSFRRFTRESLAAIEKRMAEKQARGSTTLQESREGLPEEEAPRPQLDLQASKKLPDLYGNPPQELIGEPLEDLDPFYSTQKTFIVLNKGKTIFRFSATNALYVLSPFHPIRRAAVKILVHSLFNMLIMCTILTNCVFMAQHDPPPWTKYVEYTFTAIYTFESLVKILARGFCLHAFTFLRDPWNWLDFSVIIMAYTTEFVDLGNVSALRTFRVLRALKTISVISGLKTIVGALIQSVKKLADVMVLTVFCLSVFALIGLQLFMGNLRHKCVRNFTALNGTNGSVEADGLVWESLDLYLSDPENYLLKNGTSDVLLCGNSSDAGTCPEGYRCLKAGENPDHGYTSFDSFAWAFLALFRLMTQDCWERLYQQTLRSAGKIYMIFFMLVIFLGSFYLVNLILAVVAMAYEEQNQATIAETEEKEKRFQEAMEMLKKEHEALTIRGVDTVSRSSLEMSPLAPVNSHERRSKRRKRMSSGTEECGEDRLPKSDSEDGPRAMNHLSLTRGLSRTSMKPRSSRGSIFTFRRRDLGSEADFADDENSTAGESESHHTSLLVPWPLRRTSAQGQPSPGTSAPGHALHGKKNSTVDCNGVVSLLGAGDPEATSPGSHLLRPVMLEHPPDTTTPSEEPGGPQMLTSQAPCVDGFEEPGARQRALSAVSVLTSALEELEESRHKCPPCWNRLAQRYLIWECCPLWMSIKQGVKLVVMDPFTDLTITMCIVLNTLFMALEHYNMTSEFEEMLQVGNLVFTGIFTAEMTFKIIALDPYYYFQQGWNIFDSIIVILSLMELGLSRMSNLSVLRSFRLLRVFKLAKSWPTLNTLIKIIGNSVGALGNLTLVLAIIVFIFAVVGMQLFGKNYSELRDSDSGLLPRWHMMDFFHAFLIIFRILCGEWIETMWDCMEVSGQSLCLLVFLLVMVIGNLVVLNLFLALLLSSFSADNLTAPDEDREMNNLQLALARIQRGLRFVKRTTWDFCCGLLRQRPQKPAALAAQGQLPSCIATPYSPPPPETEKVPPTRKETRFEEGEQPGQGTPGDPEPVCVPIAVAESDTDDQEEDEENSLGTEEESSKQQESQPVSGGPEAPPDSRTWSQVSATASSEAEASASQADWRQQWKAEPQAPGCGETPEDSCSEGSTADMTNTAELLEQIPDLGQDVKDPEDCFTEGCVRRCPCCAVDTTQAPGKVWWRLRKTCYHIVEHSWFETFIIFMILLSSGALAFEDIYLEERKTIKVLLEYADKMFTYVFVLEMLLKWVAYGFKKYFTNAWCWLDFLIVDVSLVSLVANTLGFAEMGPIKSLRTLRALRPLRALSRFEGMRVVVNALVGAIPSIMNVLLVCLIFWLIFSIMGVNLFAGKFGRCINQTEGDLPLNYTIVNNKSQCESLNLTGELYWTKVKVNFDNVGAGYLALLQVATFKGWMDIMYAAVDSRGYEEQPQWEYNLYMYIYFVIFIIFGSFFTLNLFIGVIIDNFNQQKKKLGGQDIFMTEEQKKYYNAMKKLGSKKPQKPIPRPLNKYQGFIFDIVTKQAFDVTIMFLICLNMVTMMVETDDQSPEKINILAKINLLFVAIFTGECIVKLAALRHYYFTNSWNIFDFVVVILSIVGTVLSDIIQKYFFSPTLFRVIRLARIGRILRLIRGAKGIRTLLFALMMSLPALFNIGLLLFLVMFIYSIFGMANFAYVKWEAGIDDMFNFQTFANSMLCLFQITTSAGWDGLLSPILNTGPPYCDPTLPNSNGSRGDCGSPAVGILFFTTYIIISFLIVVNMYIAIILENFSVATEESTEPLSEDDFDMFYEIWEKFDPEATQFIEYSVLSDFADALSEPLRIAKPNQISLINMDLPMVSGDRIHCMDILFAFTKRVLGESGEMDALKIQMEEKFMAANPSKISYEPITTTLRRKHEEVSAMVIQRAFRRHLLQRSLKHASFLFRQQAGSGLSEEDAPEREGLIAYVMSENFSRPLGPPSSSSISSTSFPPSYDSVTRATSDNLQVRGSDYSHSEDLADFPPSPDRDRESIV
smiles,measurement,setting,value
C=C[C@H]1C[N@@]2CC[C@H]1C[C@@H]2[C@@H](O)c1ccnc2ccc(OC)cc12 [quinidine],"Tonic block of NaV1.5, percent inhibition",[1]; [15],6.7 ± 1.2%
same,τon contribution by the slow component of the exponential,[2]; [16],26.1%
same,τoff Tau slow,"[3]; each drug at or near its IC50, −120 mV",37.7 ± 5.9 s
O=C(NCC1CCCCN1)c1cc(OCC(F)(F)F)ccc1OCC(F)(F)F (centres unmarked) [flecainide],"Tonic block of NaV1.5, percent inhibition",[1]; [15],1.6 ± 1.2%
same,τon contribution by the slow component of the exponential,[2]; [16],45.1%
same,τon Percent Fast,[2]; [17],54.9%
Cc1cccc(C)c1OCC(C)N (centres unmarked) [mexiletine],"Tonic block of NaV1.5, percent inhibition",[1]; human,9.2 ± 1.5%
same,τon Percent Fast,[2],92.9% and > 92%
same,τoff Percent Fast,[3],83.2%
same,τoff Tau fast,[3],0.8 ± 0.03 s
"Nc1nnc(-c2cccc(Cl)c2Cl)c(N)n1 [lamotrigine, Lamotrigine]",IC50,[4]; ramp epoch,12.1 µM
same,IC50,[4]; −15 mV epoch,17.2 µM
same,percent of the maximum effect of flecainide,[5],~ 29%
same,fold difference in potency at a depolarized potential,[6],10 fold
same,IC50,"[7]; V hold = −95 mV, 0.1 Hz",28.8 µM and 28.9 µM
same,IC50,[7]; V hold = −120 mV,280 µM
same,"Tonic block of NaV1.5, percent inhibition",[1]; [15],26.8 ± 1.4%
same,"Tonic block of NaV1.5, percent inhibition","[1]; lamotrigine 25 μM, mean ± SEM",2.6 ± 2.1%
same,SUDEP odds ratio (OR),[8]; 95% CI: 0.31–0.97,0.55
same,reduction in SUDEP risk,[8],45%
same,"τon fast component, fold of mexiletine",[2],≤ 1.6 fold
same,τon Percent Fast,[2]; [17],> 92%
same,% block at 200th pulse,"[2]; lamotrigine 25 µM, V hold = −120 mV",25.5 ± 1.5% and 26%
same,"τon fast component, fold faster than flecainide",[2]; lamotrigine versus flecainide,8.4 fold
same,"τon fast component, fold faster than quinidine",[2]; lamotrigine versus quinidine,4.7 fold
same,expected increase in PR interval (absolute values),"at 15 μg/ml, healthy subjects, outlier included",18.15 ms
same,decrease in QRS interval (absolute values),"at 15 μg/ml, outlier included",5.94 ms
same,expected PR prolongation relative to baseline,"at ~20 μg/ml, highest peak concentrations reported in patients",8.24 ms
same,increase in PR interval as change from baseline,"healthy subjects, outlier included",up to 6.18 ms
same,mean PR interval,"human, in vivo",169 ms
same,slope in PR change from baseline per μg/ml of lamotrigine,outlier included,0.412 ms/µg/mL
same,subjects with QRS interval >120 ms while on lamotrigine,outlier included,None
same,"QTc interval, QRS duration, or blood pressure",[9],no increase
same,QTcF,[9],small reductions
same,heart rate and mean PR interval,[9],small increases
same,IC50,[10],229 µM
same,potency (IC50) to block the hERG potassium channel,[10],58.6 µg/mL
same,"recovery from block, rate fold faster than quinidine",[3],1.4 fold
same,off-rate kinetics fold faster than flecainide,[3]; high concentration of lamotrigine,> 86 fold
same,"τoff slow component, fold faster than quinidine's slow time constant",[3]; lamotrigine 25 μM,2.4 fold
same,τoff Percent Fast,"[3]; lamotrigine 25 µM, −120 mV",58.0%
same,τoff Tau fast,"[3]; lamotrigine 25 µM, −120 mV",0.8 ± 0.1 s
same,τoff Tau slow,"[3]; lamotrigine 25 µM, −120 mV",15.6 ± 5.0 s
same,inhibition of action potential upstroke (dV/dt),[11],< 10%
same,safety reports relating to the circulatory system,[12],1483 reports
same,"safety reports relating to the circulatory system, share of all reports",[12],0.021%
same,free concentration,[13],6600 ng/mL
same,peak unbound concentration,[13],3.15 to 24.5 µM
same,concentrations expected in over 95% of patients,[14],below 15 μg/ml
same,highest values for peak concentrations reported in patients,[14],~ 20 μg/ml
